# Test results from patent US20260007613A1, “LONG-ACTING LOW-TOXICITY NOVEL CATIONIC LIPID COMPOUNDS AND COMPOSITION THEREOF” (BEIJING YOUCAREKECHUANG PHARMACEUTICAL TECHNOLOGY CO., LTD., priority 2023, published 2026).
# “And” between values parts separate entries of the source, which are not always exact repeats. Equal entries are not always repeated.
# Columns and labels:
# [1] = tested on: 293T cells; test: Fluorescent detection of Fluc-mRNA (cell transfection efficiency of LNP formulations); format: cell-based
# Procedure: (§1) Cell recovery and passage: 293T cells were recovered, cultured in a culture dish, and passaged to the required number of cells.
# (§2) Seeding plate: The cells in the culture dish were digested and counted. Cells were spread in a 96-well plate at 10,000 cells per well and in a 12-well plate at 150,000 cells per well. Cells were cultured overnight until the cells adhered to the wall.
# (§3) Cell recovery and passage: the method was the same as in Example 3.
# (§4) Seeding plate: the method was the same as in Example 3.
# An LNP formulation containing […] of Fluc-mRNA (the carrier components of the LNP formulation were cationic lipid, neutral lipid, structured lipid and polymer-conjugated lipid with a molar ratio of 49:10:39.5:1.5, wherein the cationic lipid was listed in Table 1) was added to the cell culture medium of a 96-well plate, and further incubated for 24 hours. The corresponding reagent was added according to the instructions of the […] Luciferase Assay Kit, and the fluorescence expression intensity of each well was detected by an IVIS fluorescence detection system. This test verified the transfection efficiencies of LNP formulations in cells, see Tables 4-7 for specific test results.
# [2] = Particle size and polydispersity index (PDI) of lipid nanoparticles by dynamic light scattering; format: physicochemical; settings: LNP formulation prepared from the cationic lipid, 25° C.
# Procedure: The particle size and polydispersity index (PDI) were determined by dynamic light scattering using Malvern laser particle size analyzer.
# 10 μL of the liposome solution was weighed, diluted to 1 mL with RNase-free deionized water, and added to the sample pool. Each sample was measured in triplicate. The measurement conditions were: […] scattering angle, and 25° C.
# [3] = tested on: 293T cells; test: Cell survival rate determination (CCK-8); format: cell-based
# Procedure: as §1, §2, §3, §4
# An LNP formulation containing […] of Fluc-mRNA (the carrier components of the LNP formulation were cationic lipid, neutral lipid, structured lipid and polymer-conjugated lipid with a molar ratio of 49:10:39.5:1.5, wherein the cationic lipid was listed in Table 1) and the formulation of Lipofectamine 3000 were added to the cell culture medium of a 96-well plate, and further cultivated for 24 hours. 10 μL of CCK-8 solution was then added to each well, and the culture plate was incubated in an incubator for 1 hour. The absorbance at 450 nm was measured by a microplate reader.
# Cell survival rate can represent the toxicity of cationic lipids to cells. The higher the cell survival rate, the lower the toxicity to cells.
# [4] = tested on: female BALB/C mice; test: Live imaging in mice: protein expression of Fluc-mRNA delivered by LNP formulations; format: in vivo; settings: for average radiation intensity, times that of ALC-0315: comparator ALC-0315; for average radiation intensity, times that of HHMA: comparator HHMA; for average radiation intensity, times that of SM-102: comparator SM-102; for expression of mRNA in mice, times that of YK-302: comparator YK-302; for expression amount, times that of YK-321: comparator YK-321; for average radiation intensity, times that of compound 21: comparator compound 21; for average radiation intensity, times that of compound 23: comparator compound 23
# Procedure: In addition, the protein expression and duration of mRNA in mice delivered by the cationic lipid delivery carriers designed were also verified.
# The LNP formulation containing […] Fluc-mRNA was injected intramuscularly into female BALB/C mice aged 4 to 6 weeks old and weighed 17 to 19 g, and the mice were intraperitoneally injected with fluorescent imaging substrate at specific time points after administration (6 h, 24 h, 48 h and 7 d), where the mice were free to move for 5 minutes, and then the average radiation intensity (corresponding to fluorescence expression intensity) of the protein expression of the mRNA carried by the LNP in the mice was detected by the IVIS Spectrum small animal live imaging device.
compound,measurement,setting,value
"CCCCCCCCC(CCCCCCCC)OC(=O)CCCCCN(CCCCCC(=O)OC(CCCCCCCC)CCCCCCCC)C[C@H](O)CN(CCO)CCO [YK-318, (S)-bis(heptadecan-9-yl)-6,6′-((3-(bis(2-hydroxyethyl)amino)-2-hydroxypropyl)azanediyl)dihexanoate]",Relative light unit (RLU),"[1]; LNP formulation of Fluc-mRNA, 96-well plate, 24 hours",11190068 RLU
same,Multiples (YK-305),[1]; RLU of YK-305 / RLU of the lipid of the line,2.45
same,Multiples (YK-310),[1]; RLU of YK-310 / RLU of the lipid of the line,2.31
same,Multiples (YK-312),[1]; RLU of YK-312 / RLU of the lipid of the line,1.80
same,Multiples (YK-318),"[1]; RLU of YK-318 / RLU of the lipid of the line, Tables 5, 7, 11",1.00
same,Multiples (YK-319),"[1]; RLU of YK-319 / RLU of the lipid of the line, Tables 5, 7, 11",2.19
same,Ratio relative to SM-102,"[1]; RLU of the lipid / RLU of SM-102, times that of SM-102",6.98
same,"cell transfection efficiency, times that of ALC-0315",[1]; comparator ALC-0315,5.50 times
same,"cell transfection efficiency, times that of HHMA",[1]; comparator HHMA,5.58 times
same,"cell transfection efficiency, times that of Lipofectamine 3000",[1]; comparator Lipofectamine 3000,9.44 times
same,"cell transfection efficiency, times that of YK-009",[1]; comparator YK-009,2.19 times
same,"cell transfection efficiency, times that of YK-301",[1]; comparator YK-301,13.28 times
same,"cell transfection efficiency, times that of YK-302",[1]; comparator YK-302,402.84 times
same,"cell transfection efficiency, times that of YK-303",[1]; comparator YK-303,17.87 times
same,"cell transfection efficiency, times that of YK-304",[1]; comparator YK-304,~400 times and 540.95 times
same,"cell transfection efficiency, times that of YK-306",[1]; comparator YK-306,5.09 times
same,"cell transfection efficiency, times that of YK-307",[1]; comparator YK-307,2.46 times
same,"cell transfection efficiency, times that of YK-308",[1]; comparator YK-308,4.86 times
same,"cell transfection efficiency, times that of YK-309",[1]; comparator YK-309,~90 times and 89.26 times
same,"cell transfection efficiency, times that of YK-311",[1]; comparator YK-311,5.70 times
same,"cell transfection efficiency, times that of YK-313",[1]; comparator YK-313,12.91 times
same,"cell transfection efficiency, times that of YK-314",[1]; comparator YK-314,20.44 times
same,"cell transfection efficiency, times that of YK-315",[1]; comparator YK-315,7.05 times
same,"cell transfection efficiency, times that of YK-316",[1]; comparator YK-316,2.33 times
same,"cell transfection efficiency, times that of YK-317",[1]; comparator YK-317,3.10 times
same,"cell transfection efficiency, times that of YK-320",[1]; comparator YK-320,4.14 times
same,"cell transfection efficiency, times that of YK-321",[1]; comparator YK-321,7.97 times
same,"cell transfection efficiency, times that of compound 21",[1]; comparator compound 21,7.81 times
same,"cell transfection efficiency, times that of compound 23",[1]; comparator compound 23,8.25 times
same,PDI (%),[2],14.8%
same,Particle size (nm),[2],173 nm
same,Cell survival rate (%),"[3]; LNP formulation of Fluc-mRNA, 24 hours, CCK-8",75.56%
same,cell survival rate higher than ALC-0315,"[3]; difference of survival rates, comparator ALC-0315",24.53%
same,cell survival rate higher than HHMA,"[3]; difference of survival rates, comparator HHMA",9.09%
same,cell survival rate higher than Lipofectamine 3000,"[3]; difference of survival rates, comparator Lipofectamine 3000",50.55%
same,cell survival rate higher than SM-102,"[3]; difference of survival rates, comparator SM-102",6.11%
same,cell survival rate higher than YK-301,"[3]; difference of survival rates, comparator YK-301",22.60%
same,cell survival rate higher than YK-302,"[3]; difference of survival rates, comparator YK-302",59.13%
same,cell survival rate higher than YK-303,"[3]; difference of survival rates, comparator YK-303",12.24%
same,cell survival rate higher than YK-304,"[3]; difference of survival rates, comparator YK-304",41.40%
same,cell survival rate higher than YK-306,"[3]; difference of survival rates, comparator YK-306",33.37%
same,cell survival rate higher than YK-307,"[3]; difference of survival rates, comparator YK-307",14.42%
same,cell survival rate higher than YK-308,"[3]; difference of survival rates, comparator YK-308",4.57%
same,cell survival rate higher than YK-309,"[3]; difference of survival rates, comparator YK-309",43.95%
same,cell survival rate higher than YK-311,"[3]; difference of survival rates, comparator YK-311",5.50%
same,cell survival rate higher than YK-313,"[3]; difference of survival rates, comparator YK-313",6.63%
same,cell survival rate higher than YK-314,"[3]; difference of survival rates, comparator YK-314",7.68%
same,cell survival rate higher than YK-315,"[3]; difference of survival rates, comparator YK-315",4.28%
same,cell survival rate higher than YK-316,"[3]; difference of survival rates, comparator YK-316",5.03%
same,cell survival rate higher than YK-317,"[3]; difference of survival rates, comparator YK-317",16.38%
same,cell survival rate higher than YK-320,"[3]; difference of survival rates, comparator YK-320",4.49%
same,cell survival rate higher than YK-321,"[3]; difference of survival rates, comparator YK-321",3.22%
same,cell survival rate higher than compound 21,"[3]; difference of survival rates, comparator compound 21",5.35%
same,cell survival rate higher than compound 23,"[3]; difference of survival rates, comparator compound 23",4.06%
same,"average radiation intensity, times that of ALC-0315",[4]; 6 h,3.85 times
same,"average radiation intensity, times that of HHMA",[4]; 6 h,5.11 times
same,"average radiation intensity, times that of SM-102",[4]; 6 h,4.74 times
same,"expression of mRNA in mice, times that of YK-302",[4]; 6 h,228.10 times
same,"expression amount, times that of YK-321",[4]; 6 h,6.45 times
same,"average radiation intensity, times that of compound 21",[4]; 6 h,5.45 times
same,"average radiation intensity, times that of compound 23",[4]; 6 h,5.64 times
same,average radiation intensity,[4]; 6 h after intramuscular injection,3325680
same,"average radiation intensity, times that of ALC-0315",[4]; 24 h,5.08 times
same,"average radiation intensity, times that of HHMA",[4]; 24 h,8.08 times
same,"average radiation intensity, times that of SM-102",[4]; 24 h,8.04 times
same,"expression of mRNA in mice, times that of YK-302",[4]; 24 h,244.83 times
same,"expression amount, times that of YK-321",[4]; 24 h,9.57 times
same,"average radiation intensity, times that of compound 21",[4]; 24 h,8.82 times
same,"average radiation intensity, times that of compound 23",[4]; 24 h,9.27 times
same,average radiation intensity,[4]; 24 h after intramuscular injection,968540
same,"average radiation intensity, times that of ALC-0315",[4]; 48 h,8.96 times
same,"average radiation intensity, times that of HHMA",[4]; 48 h,10.96 times
same,"average radiation intensity, times that of SM-102",[4]; 48 h,10.96 times
same,"expression of mRNA in mice, times that of YK-302",[4]; 48 h,348.11 times
same,"expression amount, times that of YK-321",[4]; 48 h,9.76 times
same,"average radiation intensity, times that of compound 21",[4]; 48 h,11.52 times
same,"average radiation intensity, times that of compound 23",[4]; 48 h,10.77 times
same,average radiation intensity,[4]; 48 h after intramuscular injection,356810
same,"average radiation intensity, times that of ALC-0315",[4]; 7 d,7.19 times
same,"average radiation intensity, times that of HHMA",[4]; 7 d,8.63 times
same,"average radiation intensity, times that of SM-102",[4]; 7 d,7.65 times
same,"expression of mRNA in mice, times that of YK-302",[4]; 7 d,131.92 times
same,"expression amount, times that of YK-321",[4]; 7 d,7.69 times
same,"average radiation intensity, times that of compound 21",[4]; 7 d,7.86 times
same,"average radiation intensity, times that of compound 23",[4]; 7 d,8.12 times
same,average radiation intensity,[4]; 7 d after intramuscular injection,50659
